Results published in patent US20240018198A1, “MU-DIGUETOXIN-DC1A VARIANT POLYPEPTIDES FOR PEST CONTROL” (Vestaron Corporation, priority 2020, published 2024).
linker = not defined here; ERSP = not defined here

How the values were obtained:
[1] = tested on: Corn earworm (Helicoverpa zea); test: Screen for mutants improving CEW activity (injection of concentrated supernatants); format: in vivo
Experimental: Mutations of Dc1a were made to screen for recovery of CEW activity. Here, mutants were synthesized and cloned according the methods described above. […] Supernatants were combined and concentrated 10× using centrifugal filtration cassettes (Pall) with a 3000 Da molecular weight cutoff. Concentrates were then injected into Corn earworm (Helicoverpa zea).
Corn earworm (CEW) larvae were injected in their fourth instar. Eggs of H zea were purchased (Benzon Research, 7 Kuhn Dr, Carlisle, PA, 17015) and reared to fourth instar on General Purpose Lepidoptera Diet (Frontier Agricultural Science, Newark, DE). Prior to injection larvae were weighed in order to calculate μmol/g doses. Injections volumes are 1 μL, and were performed with a 30 gauge needle and glass syringe in a hand microapplicator (Burkard, Rickmansworth, Herts, England). The injection site was near the base of one of the hindmost prolegs. Following the injection, larvae are placed in a new enclosure with General Purpose Lepidoptera Diet and their condition (including mortality, sublethal effects, and behavior) is evaluated 24-hours post-injection.

[2] = tested on: Adult houseflies (Musca domestica); test: Housefly injection assay with plant-expressed proteins (TSP extract); format: in vivo; conditions: 2 hours post-injection; 0.5 μL TSP extract per fly; impacted = knock-down and dead
Experimental: Full length DVP-insecticidal protein was purified from the tobacco by using a manual extraction technique. Leaf tissue was obtained via 30 mm diameter punch, from the infiltrated area, rolled up and placed inside a 2 mL conical bottom tube with two, 5/32 inch diameter stainless steel grinding balls, and frozen in liquid nitrogen. The samples were then homogenized using a Troemner-Talboys High Throughput Homogenizer. Next, a 750 μL ice-cold total soluble protein (TSP) extraction solution (sodium phosphate solution 50 mM, EDTA 1 mM, pH 7.0) was added into the tube and vortexed. The microtube was then left to incubate at room temperature for 15 minutes, and then centrifuged at 16,000×g for 15 minutes at 4° C. Next, 100 μL of the resulting supernatant was taken and loaded into pre-Sephadex G-50-packed column in 0.45 μm Millipore MultiScreen filter microtiter plate with empty receiving Costar microtiter plate on bottom. The microtiter plates were then centrifuged at 800 g for 2 minutes at 4° C. The resulting filtrate solution (hereinafter “total soluble protein extract” or “TSP extract”) of the tobacco leaves, was ready for downstream analysis.
Houseflies were injected with the TSP extract obtained from the plant extraction process described above. Prior to injection, adult houseflies (Musca domestica) were immobilized with CO2, and selected for injection based on weight (12-20 mg). […] Impacted scores include knock-down and dead.

Substance | Activity ([1]; Table 9: CEW fourth instar, 10x concentrated supernatants, 1 μL injection, 24 hours) | CEW KD50 ([1]; Table 10: category relative to WT) | % Impacted [2] [%]
C41K/C51E/D38A/L42V: Mu-diguetoxin-Dc1a variant polypeptide; printed sequences differ at position 41 (D in Table 1, K in Table 9) (AKDGDVEGPAGCKKYDVECDSGECCQKQYLWYKWRPLACRKVKSGFFSSKEVCRDV; C41K/ C51E/ D38A/ L42V DVP) | Yes | Reduced (Reduced=>1.5) | –
M1: plant-expressed DVP-insecticidal protein ERSP-UBI-L-DVP-HIS, DVP SEQ ID NO 187 ({ERSP-ubiquitin-linker}-AKDGDVEGPAGCKKYDVECDSGECCQKQYLWSKWRALDCRCLKSGFFSSKCVCRDV-{His tag}; cysteine pairing not given here; reading uncertain) | – | – | 60
M2: plant-expressed DVP-insecticidal protein ERSP-UBI-L-DVP-HIS, DVP SEQ ID NO 188 ({ERSP-ubiquitin-linker}-AKDGDVEGPAGCKKYDVECDSGECCQKQYLWKKWRALDCRCLKSGFFSSKCVCRDV-{His tag}; cysteine pairing not given here; reading uncertain) | – | – | 60
M3: plant-expressed DVP-insecticidal protein ERSP-UBI-L-DVP-HIS, DVP SEQ ID NO 189 ({ERSP-ubiquitin-linker}-AKDGDVEGPAGCKKYDVECDSGECCQKQYLWHKWRALDCRCLKSGFFSSKCVCRDV-{His tag}; cysteine pairing not given here; reading uncertain) | – | – | 80
M4: plant-expressed DVP-insecticidal protein ERSP-UBI-L-DVP-HIS, DVP SEQ ID NO 190 ({ERSP-ubiquitin-linker}-AKDGDVEGPAGCKKYDVECDSGECCQKQYLFSKWRPLDCRCLKSGFFSSKCVCRDV-{His tag}; cysteine pairing not given here; reading uncertain) | – | – | 100
